Data from PubChem BioAssay (NCI).
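Results reflect a 48-hour exposure of cells in 96-well plates to compound at five concentrations. GI50: concentration for 50% inhibition of growth. TGI: concentration producing complete growth inhibition.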

Assays:
Test in all cases: NCI tumour cell line growth inhibition, 48 h
RPMI-8226 leukemia = system: RPMI-8226 leukemia
OVCAR-4 ovarian = system: OVCAR-4 ovarian
OVCAR-8 ovarian = system: OVCAR-8 ovarian
786-0 renal = system: 786-0 renal
A498 renal = system: A498 renal
MDA-MB-435 = system: MDA-MB-435
NCI-H23 lung = system: NCI-H23 lung
SK-MEL-5 melanoma = system: SK-MEL-5 melanoma
NCI/ADR-RES ovarian = system: NCI/ADR-RES ovarian
RXF 393 renal = system: RXF 393 renal
MDA-MB-231 breast = system: MDA-MB-231 breast
OVCAR-3 ovarian = system: OVCAR-3 ovarian
COLO 205 colon = system: COLO 205 colon
SW-620 colon = system: SW-620 colon
K-562 leukemia = system: K-562 leukemia
U251 CNS = system: U251 CNS
SNB-75 CNS = system: SNB-75 CNS
UO-31 renal = system: UO-31 renal
UACC-257 melanoma = system: UACC-257 melanoma
MOLT-4 leukemia = system: MOLT-4 leukemia
PC-3 prostate = system: PC-3 prostate
HCT-15 colon = system: HCT-15 colon
MALME-3M melanoma = system: MALME-3M melanoma
T-47D breast = system: T-47D breast
A549 NSCLC = system: A549 NSCLC
KM12 colon = system: KM12 colon
NCI-H460 lung = system: NCI-H460 lung
UACC-62 melanoma = system: UACC-62 melanoma
EKVX NSCLC = system: EKVX NSCLC
SF-539 CNS = system: SF-539 CNS
NCI-H226 lung = system: NCI-H226 lung
HL-60(TB) leukemia = system: HL-60(TB) leukemia
HCT-116 colon = system: HCT-116 colon
SK-OV-3 ovarian = system: SK-OV-3 ovarian
LOX IMVI melanoma = system: LOX IMVI melanoma
HT29 colon = system: HT29 colon
CAKI-1 renal = system: CAKI-1 renal
HOP-92 NSCLC = system: HOP-92 NSCLC
SNB-19 CNS = system: SNB-19 CNS
SF-295 CNS = system: SF-295 CNS
BT-549 breast = system: BT-549 breast
SF-268 CNS = system: SF-268 CNS
HOP-62 NSCLC = system: HOP-62 NSCLC
DU-145 prostate = system: DU-145 prostate
HS 578T breast = system: HS 578T breast
MCF7 breast = system: MCF7 breast
TK-10 renal = system: TK-10 renal
CCRF-CEM leukemia = system: CCRF-CEM leukemia
SK-MEL-2 melanoma = system: SK-MEL-2 melanoma
ACHN renal = system: ACHN renal
SN12C renal = system: SN12C renal
SK-MEL-28 melanoma = system: SK-MEL-28 melanoma
OVCAR-5 ovarian = system: OVCAR-5 ovarian
HCC-2998 colon = system: HCC-2998 colon
IGROV1 ovarian = system: IGROV1 ovarian
M14 melanoma = system: M14 melanoma
NCI-H522 lung = system: NCI-H522 lung

Ic1ccc2[nH]cc(SSc3c[nH]c4ccc(I)cc34)c2c1
GI50 (RPMI-8226 leukemia): 1.78 µM
TGI (RPMI-8226 leukemia): 5.5 µM
GI50 (OVCAR-4 ovarian): 3.02 µM
TGI (OVCAR-4 ovarian): 16.6 µM
GI50 (OVCAR-8 ovarian): 3.77 µM
TGI (OVCAR-8 ovarian): 17.8 µM
GI50 (786-0 renal): 3.49 µM
TGI (786-0 renal): 12.4 µM
GI50 (A498 renal): 2.06 µM
TGI (A498 renal): 5.97 µM
GI50 (MDA-MB-435): 2.84 µM
TGI (MDA-MB-435): 8.97 µM
GI50 (NCI-H23 lung): 2.36 µM
TGI (NCI-H23 lung): 7.96 µM
GI50 (SK-MEL-5 melanoma): 3.18 µM
TGI (SK-MEL-5 melanoma): 13.5 µM
GI50 (NCI/ADR-RES ovarian): 2.57 µM
TGI (NCI/ADR-RES ovarian): 7.13 µM
GI50 (RXF 393 renal): 1.5 µM
TGI (RXF 393 renal): 5.68 µM
GI50 (MDA-MB-231 breast): 2.1 µM
TGI (MDA-MB-231 breast): 5.13 µM
GI50 (OVCAR-3 ovarian): 1.73 µM
TGI (OVCAR-3 ovarian): 5.56 µM
GI50 (COLO 205 colon): 1.91 µM
TGI (COLO 205 colon): 4.02 µM
GI50 (SW-620 colon): 2.74 µM
TGI (SW-620 colon): 10.5 µM
GI50 (K-562 leukemia): 2 µM
TGI (K-562 leukemia): 6.27 µM
GI50 (U251 CNS): 2.25 µM
TGI (U251 CNS): 10.1 µM
GI50 (SNB-75 CNS): 2.36 µM
TGI (SNB-75 CNS): 9.28 µM
GI50 (UO-31 renal): 3.06 µM
TGI (UO-31 renal): 17.3 µM
GI50 (UACC-257 melanoma): 2.79 µM
TGI (UACC-257 melanoma): 6.74 µM
GI50 (MOLT-4 leukemia): 1.7 µM
TGI (MOLT-4 leukemia): 4.62 µM
GI50 (PC-3 prostate): 0.492 µM
TGI (PC-3 prostate): 4.65 µM
GI50 (HCT-15 colon): 2.21 µM
TGI (HCT-15 colon): 10.4 µM
GI50 (MALME-3M melanoma): 1.92 µM
TGI (MALME-3M melanoma): 8.29 µM
GI50 (T-47D breast): 2.68 µM
TGI (T-47D breast): 11.2 µM
GI50 (A549 NSCLC): 3.65 µM
TGI (A549 NSCLC): 12 µM
GI50 (KM12 colon): 1.5 µM
TGI (KM12 colon): 5.83 µM
GI50 (NCI-H460 lung): 2.41 µM
TGI (NCI-H460 lung): 6.52 µM
GI50 (UACC-62 melanoma): 2.7 µM
TGI (UACC-62 melanoma): 11.5 µM
GI50 (EKVX NSCLC): 1.2 µM
TGI (EKVX NSCLC): 10.1 µM
GI50 (SF-539 CNS): 2.39 µM
TGI (SF-539 CNS): 9.29 µM
GI50 (NCI-H226 lung): 1.98 µM
TGI (NCI-H226 lung): 9.35 µM
GI50 (HL-60(TB) leukemia): 1.18 µM
TGI (HL-60(TB) leukemia): 3.56 µM
GI50 (HCT-116 colon): 1.25 µM
TGI (HCT-116 colon): 3.08 µM
GI50 (SK-OV-3 ovarian): 3.46 µM
TGI (SK-OV-3 ovarian): 11.7 µM
GI50 (LOX IMVI melanoma): 1.43 µM
TGI (LOX IMVI melanoma): 3.51 µM
GI50 (HT29 colon): 3.36 µM
TGI (HT29 colon): 11.2 µM
GI50 (CAKI-1 renal): 2.23 µM
TGI (CAKI-1 renal): 6.3 µM
GI50 (HOP-92 NSCLC): 0.936 µM
TGI (HOP-92 NSCLC): 3.69 µM
GI50 (SNB-19 CNS): 3.25 µM
TGI (SNB-19 CNS): 11.9 µM
GI50 (SF-295 CNS): 1.89 µM
TGI (SF-295 CNS): 4.69 µM
GI50 (BT-549 breast): 1.35 µM
TGI (BT-549 breast): 7.04 µM
GI50 (SF-268 CNS): 2.99 µM
TGI (SF-268 CNS): 10.9 µM
GI50 (HOP-62 NSCLC): 3.14 µM
TGI (HOP-62 NSCLC): 8.71 µM
GI50 (DU-145 prostate): 3.47 µM
TGI (DU-145 prostate): 12.9 µM
GI50 (HS 578T breast): 1.93 µM
TGI (HS 578T breast): 6.24 µM
GI50 (MCF7 breast): 2.69 µM
TGI (MCF7 breast): 11.6 µM
GI50 (TK-10 renal): 2.88 µM
TGI (TK-10 renal): 10.1 µM
GI50 (CCRF-CEM leukemia): 1.25 µM
TGI (CCRF-CEM leukemia): 3.48 µM
GI50 (SK-MEL-2 melanoma): 2.3 µM
TGI (SK-MEL-2 melanoma): 6.96 µM
GI50 (ACHN renal): 2.25 µM
TGI (ACHN renal): 6.99 µM
GI50 (SN12C renal): 2.86 µM
TGI (SN12C renal): 11 µM
GI50 (SK-MEL-28 melanoma): 3.36 µM
TGI (SK-MEL-28 melanoma): 12.6 µM
GI50 (OVCAR-5 ovarian): 2.38 µM
TGI (OVCAR-5 ovarian): 6.11 µM
GI50 (HCC-2998 colon): 2.34 µM
TGI (HCC-2998 colon): 4.76 µM

COc1cc(/C=C2\CC3C4CCC5=CC(=O)CC[C@]5(C)C4CC[C@]3(C)C2=O)ccc1OCCCn1ccnc1 (some centres undefined)
GI50 (OVCAR-4 ovarian): 12.4 µM
TGI (OVCAR-4 ovarian): > 100 µM
GI50 (OVCAR-8 ovarian): 5.93 µM
TGI (OVCAR-8 ovarian): 22.1 µM
GI50 (786-0 renal): 11.6 µM
TGI (786-0 renal): 23.8 µM
GI50 (A498 renal): 11.6 µM
TGI (A498 renal): 23.9 µM
GI50 (MDA-MB-435): 5.04 µM
TGI (MDA-MB-435): 25.6 µM
GI50 (IGROV1 ovarian): 9.13 µM
TGI (IGROV1 ovarian): 29.5 µM
GI50 (NCI-H23 lung): 2.22 µM
TGI (NCI-H23 lung): 4.43 µM
GI50 (SK-MEL-5 melanoma): 2.07 µM
TGI (SK-MEL-5 melanoma): 7.1 µM
GI50 (NCI/ADR-RES ovarian): 4.51 µM
TGI (NCI/ADR-RES ovarian): 18.5 µM
GI50 (RXF 393 renal): 0.0969 µM
TGI (RXF 393 renal): 6.94 µM
GI50 (MDA-MB-231 breast): 5.04 µM
TGI (MDA-MB-231 breast): 21 µM
GI50 (OVCAR-3 ovarian): 5.17 µM
TGI (OVCAR-3 ovarian): 19.4 µM
GI50 (COLO 205 colon): 4.52 µM
TGI (COLO 205 colon): 22.7 µM
GI50 (SW-620 colon): 8.23 µM
TGI (SW-620 colon): 23.1 µM
GI50 (K-562 leukemia): 2.69 µM
TGI (K-562 leukemia): 12.9 µM
GI50 (U251 CNS): 9.09 µM
TGI (U251 CNS): 21.2 µM
GI50 (UO-31 renal): 4.36 µM
TGI (UO-31 renal): 16.2 µM
GI50 (UACC-257 melanoma): 2.1 µM
TGI (UACC-257 melanoma): 7.47 µM
GI50 (MOLT-4 leukemia): 4.09 µM
TGI (MOLT-4 leukemia): 18.9 µM
GI50 (PC-3 prostate): 4.1 µM
TGI (PC-3 prostate): 20.2 µM
GI50 (HCT-15 colon): 4.03 µM
TGI (HCT-15 colon): 16.2 µM
GI50 (MALME-3M melanoma): 3.11 µM
TGI (MALME-3M melanoma): 13.5 µM
GI50 (T-47D breast): 5.23 µM
TGI (T-47D breast): 19 µM
GI50 (A549 NSCLC): 5.32 µM
TGI (A549 NSCLC): 21.7 µM
GI50 (KM12 colon): 3.75 µM
TGI (KM12 colon): 20 µM
GI50 (NCI-H460 lung): 4.68 µM
TGI (NCI-H460 lung): 24.5 µM
GI50 (UACC-62 melanoma): 5.18 µM
TGI (UACC-62 melanoma): 24.9 µM
GI50 (EKVX NSCLC): 17.6 µM
TGI (EKVX NSCLC): 45 µM
GI50 (SF-539 CNS): 7.21 µM
TGI (SF-539 CNS): 21.7 µM
GI50 (NCI-H226 lung): 11.2 µM
TGI (NCI-H226 lung): 27.5 µM
GI50 (HL-60(TB) leukemia): 2.86 µM
TGI (HL-60(TB) leukemia): 10.2 µM
GI50 (HCT-116 colon): 2.7 µM
TGI (HCT-116 colon): 13.1 µM
GI50 (SK-OV-3 ovarian): 15.7 µM
TGI (SK-OV-3 ovarian): 30.2 µM
GI50 (M14 melanoma): 5.87 µM
TGI (M14 melanoma): 23.7 µM
GI50 (LOX IMVI melanoma): 3.75 µM
TGI (LOX IMVI melanoma): 14.4 µM
GI50 (HT29 colon): 0.794 µM
TGI (HT29 colon): 11.6 µM
GI50 (CAKI-1 renal): 8.97 µM
TGI (CAKI-1 renal): 26.9 µM
GI50 (HOP-92 NSCLC): 6.22 µM
TGI (HOP-92 NSCLC): 22.8 µM
GI50 (NCI-H522 lung): 3.8 µM
TGI (NCI-H522 lung): 16.1 µM
GI50 (SNB-19 CNS): 21.6 µM
TGI (SNB-19 CNS): > 100 µM
GI50 (SF-295 CNS): 2.47 µM
TGI (SF-295 CNS): 7.41 µM
GI50 (BT-549 breast): 4.45 µM
TGI (BT-549 breast): 33.4 µM
GI50 (SF-268 CNS): 13.6 µM
TGI (SF-268 CNS): 34.4 µM
GI50 (HOP-62 NSCLC): 11.8 µM
TGI (HOP-62 NSCLC): 25.2 µM
GI50 (DU-145 prostate): 11.8 µM
TGI (DU-145 prostate): 24.1 µM
GI50 (HS 578T breast): 8.45 µM
TGI (HS 578T breast): 29.8 µM
GI50 (MCF7 breast): 4.02 µM
TGI (MCF7 breast): 19.9 µM
GI50 (TK-10 renal): 15.1 µM
TGI (TK-10 renal): 31.2 µM
GI50 (CCRF-CEM leukemia): 3.35 µM
TGI (CCRF-CEM leukemia): 10 µM
GI50 (ACHN renal): 10.2 µM
TGI (ACHN renal): 21.8 µM
GI50 (SN12C renal): 1.76 µM
TGI (SN12C renal): 8.5 µM
GI50 (SK-MEL-28 melanoma): 6.55 µM
TGI (SK-MEL-28 melanoma): 25.9 µM
GI50 (OVCAR-5 ovarian): 18.6 µM
TGI (OVCAR-5 ovarian): 37.9 µM
